Assay results as given in US6355799B1, “Substituted benzene compounds, process for their preparation, and herbicidal and defoliant compositions containing them” (ISK Americas Incorporated, priority 1997, dated 2002).

Key:
Assay type in all cases: in vivo
[1] = tested on: redroot pigweed (Amaranthus retroflexus, AMARE); assay: Pre-emerge test, greenhouse herbicide activity screening; conditions: phytotoxicity rating 0-100, 14 days after application
Procedure, shortened: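 Compounds in acetone were track-sprayed at 187 l/ha, 15–1000 g ai/ha, onto sandy loam pots. Pre-emerge seeds were sown one day before spraying, with surface watering afterwards. Post-emerge plants were at the 2–3 leaf stage and sprayed with 0.25% v/v non-ionic surfactant. Injury was rated 0–100 at 14 days.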

[2] = tested on: barnyardgrass (Echinochloa crus-galli, ECHCG); assay: as above; conditions: phytotoxicity rating 0-100, 14 days after application
Procedure, shortened: (§1)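 Rating: 0–100 visual injury, 14 DAA. Application: acetone, 187 l/ha, 15–1000 g ai/ha, flat-fan track sprayer with nozzle 40–45 cm above soil or canopy. Post-emerge runs used 0.25% v/v surfactant on 2–3 leaf plants.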

[3] = tested on: common ragweed (Ambrosia artemisizfolia L., AMBEL); assay: as above; conditions: phytotoxicity rating 0-100, 14 days after application
Procedure, shortened: as §1

[4] = tested on: green foxtail (Setaria viridis, SETVI); assay: as above; conditions: phytotoxicity rating 0-100, 14 days after application
Procedure, shortened: as §1

[5] = tested on: ivyleaf morningglory (Ipomoea hederacea, IPOHE); assay: as above; conditions: phytotoxicity rating 0-100, 14 days after application
Procedure, shortened: as §1

[6] = tested on: johnsongrass (Sorghum halepense, SORHA); assay: as above; conditions: phytotoxicity rating 0-100, 14 days after application
Procedure, shortened: as §1

[7] = tested on: lambsquarters (Chenopodium album, CHEAL); assay: as above; conditions: phytotoxicity rating 0-100, 14 days after application
Procedure, shortened: as §1

[8] = tested on: large crabgrass (Digitaria sanguinalis, DIGSA); assay: as above; conditions: phytotoxicity rating 0-100, 14 days after application
Procedure, shortened: as §1

[9] = tested on: sicklepod (Cassia obtusifolia, CASOB); assay: as above; conditions: phytotoxicity rating 0-100, 14 days after application
Procedure, shortened: as §1

[10] = tested on: velvetleaf (Abutilon theophrasti, ABUTH); assay: as above; conditions: phytotoxicity rating 0-100, 14 days after application
Procedure, shortened: as §1

[11] = tested on: field corn (Zea mays L., var. Dekalb 535, CORN); assay: Pre-emerge test, crop safety; conditions: crop damage rating 0-100, 14 days after application
Procedure, shortened: (§2)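 Compounds in acetone were track-sprayed at 15-1000 g ai/ha (187 l/ha) on sandy loam pots: pre-emerge one day after seeding, post-emerge at 2-3 leaf stage with 0.25% v/v non-ionic surfactant. Phytotoxicity was rated 14 days later on a 0 (no damage) to 100 (complete death) scale.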

[12] = tested on: upland rice (Oryza sp., var. Tebonnet, RICE); assay: Pre-emerge test, crop safety; conditions: crop damage rating 0-100, 14 days after application
Procedure, shortened: as §2

[13] = tested on: barnyardgrass (Echinochloa crus-galli, ECHCG); assay: Post-emerge test, greenhouse herbicide activity screening; conditions: post-emerge, 14 days after application, rating scale 0-100
Procedure, shortened: (§3)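 Each test used a mechanized track sprayer delivering 187 l/ha of acetone solution at 15–1000 g ai/ha. Post-emerge foliage at 2–3 leaves was treated with added 0.25% v/v non-ionic surfactant and bottom-watered only. Injury was assessed on day 14, where 100 means total kill.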

[14] = tested on: common ragweed (Ambrosia artemisizfolia L., AMBEL); assay: as above; conditions: post-emerge, 14 days after application, rating scale 0-100
Procedure, shortened: as §3

[15] = tested on: green foxtail (Setaria viridis, SETVI); assay: as above; conditions: post-emerge, 14 days after application, rating scale 0-100
Procedure, shortened: as §3

[16] = tested on: ivyleaf morningglory (Ipomoea hederacea, IPOHE); assay: as above; conditions: post-emerge, 14 days after application, rating scale 0-100
Procedure, shortened: as §3

[17] = tested on: johnsongrass (Sorghum halepense, SORHA); assay: as above; conditions: post-emerge, 14 days after application, rating scale 0-100
Procedure, shortened: as §3

[18] = tested on: lambsquarters (Chenopodium album, CHEAL); assay: as above; conditions: post-emerge, 14 days after application, rating scale 0-100
Procedure, shortened: as §3

[19] = tested on: large crabgrass (Digitaria sanguinalis, DIGSA); assay: as above; conditions: post-emerge, 14 days after application, rating scale 0-100
Procedure, shortened: as §3

[20] = tested on: redroot pigweed (Amaranthus retroflexus, AMARE); assay: as above; conditions: post-emerge, 14 days after application
Procedure, shortened: as §3

[21] = tested on: sicklepod (Cassia obtusifolia, CASOB); assay: as above; conditions: post-emerge, 14 days after application, rating scale 0-100
Procedure, shortened: as §3

[22] = tested on: velvetleaf (Abutilon theophrasti, ABUTH); assay: as above; conditions: post-emerge, 14 days after application, rating scale 0-100
Procedure, shortened: as §3

[23] = tested on: field corn (Zea mays L., var. Dekalb 535, CORN); assay: Post-emerge test, crop safety; conditions: post-emerge, 14 days after application, rating scale 0-100
Procedure, shortened: (§4)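 Plants grown in 10 cm pots of sandy loam mix received acetone-dissolved compounds through a moving flat-fan nozzle. Doses ranged from 15 to 1000 g ai/ha. Pre-emerge pots were seeded one day earlier, post-emerge pots 8–21 days earlier. Fourteen days on, each pot was graded 0–100 for damage.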

[24] = tested on: upland rice (Oryza sp., var. Tebonnet, RICE); assay: Post-emerge test, crop safety; conditions: post-emerge, 14 days after application, rating scale 0-100
Procedure, shortened: as §4

In the case of `Cn1c(C(F)(F)F)cc(=O)n(-c2c(F)cc(Cl)c(O)c2NC(=O)c2ccc3ccccc3c2)c1=O` [Compound 2-194, 2-(2,4-chloro-6-fluoro-3-hydroxy-2-naphthoylamidophenyl)-1-methyl-6-trifluoromethyl-2,4(1H, 3H)-pyrimidinedione], the “Pre-emerge Herbicidal Activity AMARE” value ([1]; 63 g ai/ha) is reported as 75, the “Pre-emerge Herbicidal Activity AMARE” value ([1]; 250 g ai/ha) is reported as 100 and the “Pre-emerge Herbicidal Activity ECHCG” value ([2]; 63 g ai/ha) is reported as 0. The “Pre-emerge Herbicidal Activity ECHCG” value ([2]; 250 g ai/ha) was 0, the “Pre-emerge Herbicidal Activity AMBEL” value ([3]; 63 g ai/ha) was 0 and the “Pre-emerge Herbicidal Activity AMBEL” value ([3]; 250 g ai/ha) was 0. For the same molecule, the “Pre-emerge Herbicidal Activity SETVI” value ([4]; 63 g ai/ha) was 0, the “Pre-emerge Herbicidal Activity SETVI” value ([4]; 250 g ai/ha) was 20 and the “Pre-emerge Herbicidal Activity IPOHE” value ([5]; 63 g ai/ha) was 0. The “Pre-emerge Herbicidal Activity IPOHE” value ([5]; 250 g ai/ha) was 20, the “Pre-emerge Herbicidal Activity SORHA” value ([6]; 63 g ai/ha) was 0 and the “Pre-emerge Herbicidal Activity SORHA” value ([6]; 250 g ai/ha) was 0. The “Pre-emerge Herbicidal Activity CHEAL” value ([7]; 63 g ai/ha) was 40, the “Pre-emerge Herbicidal Activity CHEAL” value ([7]; 250 g ai/ha) was 85 and the “Pre-emerge Herbicidal Activity DIGSA” value ([8]; 63 g ai/ha) was 0. For the same molecule, the “Pre-emerge Herbicidal Activity DIGSA” value ([8]; 250 g ai/ha) was 10, the “Pre-emerge Herbicidal Activity CASOB” value ([9]; 63 g ai/ha) was 0 and the “Pre-emerge Herbicidal Activity CASOB” value ([9]; 250 g ai/ha) was 10. For the same molecule, the “Pre-emerge Herbicidal Activity ABUTH” value ([10]; 63 g ai/ha) was 90, the “Pre-emerge Herbicidal Activity ABUTH” value ([10]; 250 g ai/ha) was 100 and the “Pre-emerge Herbicidal Activity CORN” value ([11]; 63 g ai/ha) was 0. The “Pre-emerge Herbicidal Activity CORN” value ([11]; 250 g ai/ha) was 0, the “Pre-emerge Herbicidal Activity RICE” value ([12]; 63 g ai/ha) was 0 and the “Pre-emerge Herbicidal Activity RICE” value ([12]; 250 g ai/ha) was 10. The “phytotoxicity rating ECHCG” value ([13]; 63 g ai/ha) was 0, the “phytotoxicity rating ECHCG” value ([13]; 250 g ai/ha) was 10 and the “phytotoxicity rating AMBEL” value ([14]; 63 g ai/ha) was 95. The “phytotoxicity rating AMBEL” value ([14]; 250 g ai/ha) was 90, the “phytotoxicity rating SETVI” value ([15]; 63 g ai/ha) was 20 and the “phytotoxicity rating SETVI” value ([15]; 250 g ai/ha) was 20. The “phytotoxicity rating IPOHE” value ([16]; 63 g ai/ha) was 95, the “phytotoxicity rating IPOHE” value ([16]; 250 g ai/ha) was 99 and the “phytotoxicity rating SORHA” value ([17]; 63 g ai/ha) was 0. The “phytotoxicity rating SORHA” value ([17]; 250 g ai/ha) was 10, the “phytotoxicity rating CHEAL” value ([18]; 63 g ai/ha) was 90 and the “phytotoxicity rating CHEAL” value ([18]; 250 g ai/ha) was 100. For the same molecule, the “phytotoxicity rating DIGSA” value ([19]; 63 g ai/ha) was 0, the “phytotoxicity rating DIGSA” value ([19]; 250 g ai/ha) was 20 and the “phytotoxicity rating AMARE” value ([20]; 63 g ai/ha, rating scale 0-100 (0 no damage, 100 complete death)) was 99. The “phytotoxicity rating AMARE” value ([20]; 250 g ai/ha, rating scale 0-100) was 99, the “phytotoxicity rating CASOB” value ([21]; 63 g ai/ha) was 50 and the “phytotoxicity rating CASOB” value ([21]; 250 g ai/ha) was 70. The “phytotoxicity rating ABUTH” value ([22]; 63 g ai/ha) was 95, the “phytotoxicity rating ABUTH” value ([22]; 250 g ai/ha) was 100 and the “phytotoxicity rating CORN (crop damage)” value ([23]; 63 g ai/ha) was 5. The “phytotoxicity rating CORN (crop damage)” value ([23]; 250 g ai/ha) was 5, the “phytotoxicity rating RICE (crop damage)” value ([24]; 63 g ai/ha) was 30 and the “phytotoxicity rating RICE (crop damage)” value ([24]; 250 g ai/ha) was 40.
